Source: US20150352114A1, “MITOTIC KINESIN Eg5 INHIBITING ANTICANCER AGENTS” (THE CLEVELAND CLINIC FOUNDATION, priority 2014, published 2015)

Legend:
matched GSCs and NSTCs [1] = test: SubG1 (apoptotic) population by flow cytometry for propidium iodide; format: cell-based, human; settings: 3 nM; four days; three xenograft patient specimens
Experimental: (§1) The half maximal effective concentration of ispinesib for acutely dissociated and MACS sorted matched GSCs and NSTCs was determined by plating, in triplicate, 1,000 cells per well of a 96 well plate pre-coated with GelTrex in growth-factor free Neuralbasal media. The next day, cells were exposed to 2-fold increasing concentrations of ispinesib spanning from 0 to 32 nM. Viability was measured at 72 hours using CellTiter-Glo ATP-based assay (Promega, Madison, Wis.) read on a luminometer (Perkin-Elmer, Waltham, Mass.). For long-term viability assays, 500 cells per well were plated in triplicate into 96-well plates as above. The next day, cells were exposed to 3 nM ispinesib or vehicle (DMSO) and viability was measured daily for 5 days using CellTiter-Glo. Day 0 reading were taken immediately after addition of drug or vehicle. SubG1 for GSCs and NSTCs was determined by flow cytometry for propidium iodide and gated as the events below the 2N G1 peak of the resulting histogram. Analysis was done following treatment of 100,000 cells with vehicle or 3 nM ispinesib. Cells were fixed at Day 0 through Day 4 in 100% cold ethanol and simultaneously processed for flow analysis with 20,000 events analyzed per condition.

[2] = test system: glioblastoma stem cells (GSCs); test: Dose response cell viability, CellTiter-Glo ATP-based assay, GSCs; settings: Homo sapiens, 0 to 32 nM, 72 hours
Source text: Human tissues were acquired from primary human brain tumor patient specimens in accordance with appropriate approved Institutional Review Board protocols. Tumor grade and available cytogenetic information for each specimen has been previously described. Tumor specimens were maintained through subcutaneous xenografts in the flanks of athymic Nu/Nu or NSG mice. Tumors were dissociated using a papain dissociation system (Worthington Biochemical, Lakewood, N.J.). […]
as §1, with “The next day, cells were exposed to 2-fold increasing concentrations of ispinesib spanning from 0 to 32 nM.” left out, “For long-term viability assays, 500 cells per well were plated in triplicate into 96-well plates as above.” left out, “Analysis was done following treatment of 100,000 cells with vehicle or 3 nM ispinesib.” left out

Eg5 = target: T1, Eg5 (Homo sapiens, UniProt P52732); settings: cited from earlier work
T1 sequence (P52732 1-1056): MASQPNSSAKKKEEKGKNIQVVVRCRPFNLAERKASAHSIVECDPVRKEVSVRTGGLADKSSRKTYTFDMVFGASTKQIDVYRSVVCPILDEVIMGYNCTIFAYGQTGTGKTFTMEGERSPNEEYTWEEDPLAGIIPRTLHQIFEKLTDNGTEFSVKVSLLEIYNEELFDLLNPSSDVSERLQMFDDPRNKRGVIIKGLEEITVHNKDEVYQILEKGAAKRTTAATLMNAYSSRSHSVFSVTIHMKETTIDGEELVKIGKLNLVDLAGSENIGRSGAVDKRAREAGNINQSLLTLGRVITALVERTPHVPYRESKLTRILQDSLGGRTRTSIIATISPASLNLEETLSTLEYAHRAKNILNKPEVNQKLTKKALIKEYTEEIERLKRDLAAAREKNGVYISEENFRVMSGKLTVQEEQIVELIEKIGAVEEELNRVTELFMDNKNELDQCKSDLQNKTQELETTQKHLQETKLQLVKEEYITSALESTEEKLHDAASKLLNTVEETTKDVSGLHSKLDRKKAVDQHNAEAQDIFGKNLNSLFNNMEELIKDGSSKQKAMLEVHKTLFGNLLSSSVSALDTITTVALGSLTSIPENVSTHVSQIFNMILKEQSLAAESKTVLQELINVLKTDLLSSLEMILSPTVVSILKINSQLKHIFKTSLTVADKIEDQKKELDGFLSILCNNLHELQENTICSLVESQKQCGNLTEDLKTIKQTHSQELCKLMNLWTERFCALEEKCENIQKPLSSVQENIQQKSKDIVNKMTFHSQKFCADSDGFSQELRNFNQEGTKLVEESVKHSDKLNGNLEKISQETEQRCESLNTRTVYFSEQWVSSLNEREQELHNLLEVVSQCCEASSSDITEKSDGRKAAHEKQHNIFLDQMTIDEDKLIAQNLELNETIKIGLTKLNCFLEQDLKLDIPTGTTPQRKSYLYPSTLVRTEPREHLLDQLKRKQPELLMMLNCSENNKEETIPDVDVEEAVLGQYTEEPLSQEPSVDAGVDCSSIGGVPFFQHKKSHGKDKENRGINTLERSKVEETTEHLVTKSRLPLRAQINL

matched GSCs and NSTCs [3] = test: Long-term viability assay, CellTiter-Glo, 5 days; format: cell-based, human; settings: 3 nM; two matched GSCs and NSTCs
Experimental: as §1

08-387 GSCs = test: Wound assay, tubulin immunofluorescence; format: cell-based, human; settings: 200 nM; 6 hours
Experimental: Interphase enriched 08-387 GSCs were seeded within two-well culture inserts (ibidi, Verona, Wis.) at 2×10^5 cells per ml in triplicate (final volume of 80 μl per well) onto Geltrex coated glass bottom 6 well pates (MatTek Corp., Ashland, Mass.). After 2 hours, the insert was removed and cells were exposed to vehicle or 200 nM ispinesib. 6 hours later, cells were fixed and processed for immunofluorescence as described for atubulin. 20 Z-stack images at the wound edge were captured per condition using the 40× objective on a Leica DMI6000 inverted microscope. Images were then exported aa tif files using Velocity software (Mountain View, Calif.) and analyzed in ImageJ (NIH, Bethesda, Md.). Regions of interest were drawn for the primary cell layer at the wound edge for 3 independent scans per Z-stack representing the top, middle and bottom portion of the cell layer and pixel intensity and area measured.

In the case of Cc1ccc(C(=O)N(CCCN)[C@@H](c2nc3cc(Cl)ccc3c(=O)n2Cc2ccccc2)C(C)C)cc1 [ispinesib, N-(3-amino-propyl)-n-[R-1-(3-benzyl-7-choloro-4-oxo-3,4-dihydroquinazolin-2-yl)-2-methyl-propyl]-4-methyl-benzamide methanesulfonate], the “subG1 population (surrogate marker for apoptosis)” value (matched GSCs and NSTCs [1]) is given as “higher subG1 fraction over NSTCs”, the EC50 [2] is given as 1.15 ± 0.35 nM and the “selectivity for Eg5 over other kinesins” value (Eg5) is given as 40,000 times. The “cell viability over five-day time course” value (matched GSCs and NSTCs [3]) was “Both populations demonstrated sensitivity” and the “polymerized tubulin at wound edge” value (08-387 GSCs) was “significant decrease in polymerized tubulin”.
